In series [1] the test system is MDCK1 (Madine–Darby canine kidney) cells. As to the kind of experiment: MTT antiproliferative assay, MDCK1. In kind it is cell-based. As to conditions: mean ± SD of three independent experiments. The method, then: (§1) The growth inhibition activity was assessed according to the slightly modified procedure performed at the National Cancer Institute, Developmental Therapeutics Program.
(§2) The examined compounds were dissolved in DMSO (1 × 10^−2 M). The experiments were carried out on seven human tumor cell lines and a normal cell line. The following cell lines were used: HeLa (human cervical adenocarcinoma; purchased from ATCC), CaCo-2 (human colorectal adenocarcinoma), MCF-7 (human breast adenocarcinoma), CCRF-CEM (human acute lymphoblastic leukemia), Hut78 (T-cell lymphoma), THP-1 (acute monocytic leukemia), Burkitt lymphoma (Raji), and MDCK1 (Madine–Darby canine kidney). The MDCK1 cells were used between 24 and 26 passages.
(§3) The adherent cells were cultured in Dulbecco’s modified Eagle medium—DMEM (Gibco, Termo Fisher Scientific Inc., Leicestershire, England, UK), supplemented with 10% heat-inactivated fetal bovine serum (FBS, Gibco, Termo Fisher Scientific Inc., Leicestershire, England, UK), 2 mM glutamine, and 100U/0.1mg penicillin/streptomycin. The cells in suspension were cultured in RPMI 1640 (Gibco, Termo Fisher Scientific Inc., Leicestershire, England, UK) medium, supplemented with 10% FBS (Gibco, Termo Fisher Scientific Inc., Leicestershire, England, UK), 2 mM glutamine, 1 mM sodium pyruvate, and 10 mM HEPES. The cells were grown in a humidified atmosphere under the conditions of 37 °C/5% of CO2 gas in the CO2 incubator (IGO 150 CELLlife^TM, JOUAN, Thermo Fisher Scientific, Waltham, MA, USA).
(§4) The adherent cells (HeLa, CaCo-2, MCF-7, and MDCK-1) were plated in 96-well flat bottom plates (Greiner, Frickenhausen, Austria) at a concentration of 2 × 10^4 cells/mL. The suspension cells (Raji, THP-1, CCRF-CEM and Hut78) were plated in 96-well microtiter plates (Sarstead, Newton, NC, USA) at a concentration of 1 × 10^5 cells/mL. Twenty-four hours later, the cells were treated with test agents in […] and incubated for a further 72 h. The working dilutions were freshly prepared on the day of testing. The solvent was also tested for eventual inhibitory activity by adjusting its concentration to be the same as in the working concentrations. After 72 h of incubation, the cell growth rate was evaluated by performing the MTT assay, which detects dehydrogenase activity in viable cells. For this purpose, upon completion of the incubation period, the growth medium was discarded and 50 μL of MTT was added to each well at a concentration of 5 mg/mL. After four hours of incubation at 37 °C, the water insoluble MTT-formazan crystals were dissolved in 150 μL of dimethyl-sulfoxide (DMSO) for the adherent cells and in 10% SDS with 0.01 mol/L HCl for the cells grown in suspension. The absorbance (OD, optical density) was measured on a microplate reader (iMark, BIO RAD, Hercules, CA, USA) at 595 nm.
(§5) The percentage of live cells was calculated as follows: % = OD (sample) − OD (background)/OD (control) − OD (background) × 100.
(§6) The optical density (OD) of the background for the adherent cells is the OD of the MTT solution and DMSO; the OD (background) for the suspension cells is the OD of the culture medium with MTT and 10% SDS with 0.01 mol/L HCl; the OD (control) is the OD of the cells grown without the tested compounds.
(§7) The calculation of the GI50 value curves and QC analysis was performed using the Excel tools and GraphPadPrism software (La Jolla, CA, USA), v. 5.03. Briefly, individual concentration effect curves are generated by plotting the logarithm of the concentration of the tested compounds (X) vs. the corresponding percent inhibition values (Y) using the least squares fit. The best-fit GI50 values are calculated using log (inhibitor) versus normalized response—variable slope equation, where Y Ľ 100/(1 ţ 10 ((LogIC50 _ X) × HillSlope)). The QC criteria parameters (Z0, S:B, R2, HillSlope) were checked for every GI50 curve.

The subject of series [2] is HeLa (human cervical adenocarcinoma) cells. Kind of series: MTT antiproliferative assay, HeLa. In kind it is cell-based. Particulars: 72 h, mean ± SD of three independent experiments. The method, then: as §1, §2, §3, §4, §5, §6, §7
The test system of series [3] is CCRF-CEM (human acute lymphoblastic leukemia) cells. As to the kind of experiment: MTT antiproliferative assay, CCRF-CEM. In kind it is cell-based. Particulars: Homo sapiens, CCRF-CEM; 72 h, MTT, mean ± SD of three independent experiments. The method, then:
as §1, §2, §3, §4, §5, §6, §7

For series [4], the system named is THP-1 (acute monocytic leukemia) cells. Kind of series: MTT antiproliferative assay, THP-1. In kind it is cell-based, human. As to the method: as §1, §2, §3, §4, §5, §6, §7
Series [5] in a line: MTT antiproliferative assay, ranges stated over several cell lines. As to conditions: human (tumor cell lines) and dog (MDCK1); abstract, range over cell lines; read-out: GI50 range (strong cytotoxic activity). The class given is cell-based. The method, then: as §1, §2, §3, §4, §5, §6, §7
Series [6] has as its system normal (MDCK1) and tumor cell lines. The description is as above. The class given is cell-based. As to conditions: MDCK1; range over tumor cell lines; read-out: GI50 range, tumor cell lines. The method, then: as §1, §2, §3, §4, §5, §6, §7
A further series relates to THP-1 cells. Kind of series: Flow cytometry analysis of cell cycle, THP-1. The class given is cell-based, human. Particulars: THP-1, 5 μM, 24 h. The method, then: To analyze the effects of the selected compounds (5d, 8d, and 12d) on the cell cycle of the HuT78 and THP-1 cells, the cells were seeded in 6-well plates (5 × 10^5 cells per well) and treated for 24 h with the selected compounds 5d and 12d (5 μM). The cells were then collected and fixed in cold 70% ethanol. The fixed samples were stained with 15 µg/mL of propidium iodide (PI) at room temperature and analyzed by flow cytometry (FACS Canto II, BD Biosciences). The results were analyzed using FlowLogic software.
One-way ANOVA analysis of variance was performed in the MedCalc statistical program for the analysis of the cell cycle. p-values of less than 0.05 were considered to be statistically significant.

A further series concerns HuT78 cells. Kind of series: Mitochondrial membrane potential (∆Ψm), TMRE flow cytometry. The class given is cell-based, human. As to conditions: HuT78, 5 μM, 24 h. The method, then:
Changes in the (∆Ψm) were measured using TMRE (tetramethylrhodamine, ethyl ester and perchlorate) dye. In brief, the tested cells (HuT 78) were plated in 6-well plates at a concentration of 5 × 10^5 cells per well and treated with 5 μM of the compounds 5d and 12d. After 24 h of treatment, the cells were collected, centrifuged for 6 min at 1100 rpm, and stained with 200 nM of TMRE dye according to the kit protocol (TMRE Mitochondrial Membrane Potential Assay Kit, abcam, Cambridge, UK). The positive control cells were treated with 20 μM FCCP (carbonyl cyanide-p-trifluoromethoxyphenylhydrazone) for 10 min. The cells were analyzed by flow cytometry (BD FACSCalibur, Becton Dickinson, San Jose, CA, USA) and FlowJo software (FlowJo, LLC, Ashland, OR, USA).

Each structure is given as a SMILES string.

`Clc1ccc2c(Nc3cccc(-c4nc5ccccc5[nH]4)c3)ccnc2c1` [Compound 5d, N-(3-(1H-benzo[d]imidazol-2-yl)phenyl)-7-chloroquinolin-4-amine]: the GI50 was 20.4 ± 2.8 µM in series [1] (72 h); 11.4 to 20.4 µM in series [1] (Canis lupus familiaris, MDCK1, 72 h); 700 ± 100 nM in series [2]; 8.2 ± 6.2 µM in series [3]; 600 ± 300 nM in series [4] (Homo sapiens, THP-1, 72 h, MTT, mean ± SD of three independent experiments, read-out: GI50 THP1); 0.4 to 15.6 µM in series [6]. In series [4] (with respect to MDCK1 cells), the “tumor selectivity index (SI) THP1” value stood at 34. Besides, the GI50 at 72 h in series [5] fell in the range of 0.4 to 8 µM. Further, the “proportion of polyploid giant cancer cells” value with THP-1 cells was “increased proportion”. Besides, the “decrease in G0/G1 phase” value with THP-1 cells (vs control) is given as 4.5 times. Also, the “increase in G2/M phase” value in the series on THP-1 cells (vs control) is listed as 62.8%. Further, in the series on THP-1 cells (vs control), the “increase of cells in subG0/G1 phase” value is listed as 2.9 times. Further, the “cells with mitochondrial membrane disruption / change in ∆Ψm” value in the series on HuT78 cells worked out at 23.9%.
